Measured values reported in the NIST ThermoML archive (doi:10.1021/je060271a).
“And” between values parts separate entries of the source, which are not always exact repeats. Equal entries are not always repeated.

Conditions: 323.15 K, Liquid, Vibrating tube method

CCCCCC(=O)OCC(COC(=O)CCCCC)(COC(=O)CCCCC)COC(=O)CCCCC [pentaerythritol tetrahexanoate]
Conditions | mass density
4356.6 kPa | 975.7 kg/m3
4377.1 kPa | 975.8 kg/m3
4397.7 kPa | 975.8 kg/m3
4414.6 kPa | 975.8 kg/m3
4431.8 kPa | 975.7 kg/m3
4453.1 kPa | 975.7 kg/m3
4474 kPa | 975.7 kg/m3
4491.8 kPa | 975.8 kg/m3
4509.3 kPa | 975.7 kg/m3
6215.6 kPa | 977 kg/m3
6237.7 kPa | 977 kg/m3
6256.2 kPa | 977.1 kg/m3
6278.3 kPa | 977.1 kg/m3
6297 kPa | 977 kg/m3
6319.4 kPa | 977.2 kg/m3
6338.8 kPa | 977.1 kg/m3
6508.8 kPa | 977.2 kg/m3
6532.7 kPa | 977.2 kg/m3
6552.5 kPa | 977.2 kg/m3
7405.8 kPa | 977.7 kg/m3
7431 kPa | 977.8 kg/m3
7486 kPa | 977.8 kg/m3
7516.4 kPa | 978 kg/m3
7547.5 kPa | 977.8 kg/m3
7600 kPa | 978 kg/m3
7657.3 kPa | 978 kg/m3
7688 kPa | 978 kg/m3
7711.5 kPa | 978.1 kg/m3
7734.2 kPa | 978.1 kg/m3
7761.5 kPa | 978 kg/m3
7886.8 kPa | 978.1 kg/m3
7915.3 kPa | 978.1 kg/m3
7938.6 kPa | 978.2 kg/m3
7966.7 kPa | 978.2 kg/m3
7990.5 kPa | 978.2 kg/m3
8019.5 kPa | 978.3 kg/m3
8044.2 kPa | 978.3 kg/m3
8073.3 kPa | 978.1 kg/m3
8098.3 kPa | 978.3 kg/m3
8128.9 kPa | 978.3 kg/m3
8158.2 kPa | 978.5 kg/m3
8182.5 kPa | 978.3 kg/m3
8207.5 kPa | 978.3 kg/m3
9038.7 kPa | 978.9 kg/m3
9060.6 kPa | 979.1 kg/m3
9078.3 kPa | 978.9 kg/m3
9100 kPa | 978.9 kg/m3
9123 kPa | 978.9 kg/m3
9245.2 kPa | 979 kg/m3
9267 kPa | 979 kg/m3
9289.4 kPa | 979.1 kg/m3
9308.6 kPa | 979.1 kg/m3
9331.8 kPa | 979.1 kg/m3
9354.9 kPa | 979 kg/m3
9374.6 kPa | 979.1 kg/m3
9395.3 kPa | 979.1 kg/m3
9417.9 kPa | 979.2 kg/m3
9435.5 kPa | 979.1 kg/m3
9456.1 kPa | 979.2 kg/m3
9473 kPa | 979.2 kg/m3
9493.7 kPa | 979.2 kg/m3
9510.8 kPa | 979.3 kg/m3
9531.3 kPa | 979.2 kg/m3
9552.1 kPa | 979.3 kg/m3
9569.5 kPa | 979.3 kg/m3
9590.4 kPa | 979.3 kg/m3
9603.6 kPa | 979.4 kg/m3
9617.2 kPa | 979.3 kg/m3
9629.1 kPa | 979.4 kg/m3
9642.9 kPa | 979.3 kg/m3
9655.3 kPa | 979.4 kg/m3
9669.9 kPa | 979.3 kg/m3
9681.3 kPa | 979.5 kg/m3
9694.7 kPa | 979.3 kg/m3
9706.3 kPa | 979.4 kg/m3
9735.4 kPa | 979.4 kg/m3
9747.4 kPa | 979.4 kg/m3
9762.1 kPa | 979.4 kg/m3
9776.4 kPa | 979.4 kg/m3
9788.2 kPa | 979.5 kg/m3
9798.4 kPa | 979.4 kg/m3
9804.9 kPa | 979.4 kg/m3
9900.4 kPa | 979.4 kg/m3
9910.4 kPa | 979.4 kg/m3
9915.9 kPa | 979.4 kg/m3
9925.7 kPa | 979.6 kg/m3
9936.9 kPa | 979.5 kg/m3
9949.3 kPa | 979.5 kg/m3
9960.5 kPa | 979.5 kg/m3
9987.7 kPa | 979.6 kg/m3
9992.5 kPa | 979.5 kg/m3
10032 kPa | 979.7 kg/m3
10036 kPa | 979.6 kg/m3 and 979.7 kg/m3
10106 kPa | 979.7 kg/m3
10118 kPa | 979.7 kg/m3
10128 kPa | 979.6 kg/m3
10139 kPa | 979.6 kg/m3
10152 kPa | 979.6 kg/m3
10164 kPa | 979.7 kg/m3
10182 kPa | 979.6 kg/m3
10203 kPa | 979.7 kg/m3
10219 kPa | 979.8 kg/m3
10240 kPa | 979.8 kg/m3
10257 kPa | 979.7 kg/m3
10473 kPa | 979.9 kg/m3
10503 kPa | 979.9 kg/m3
10540 kPa | 980 kg/m3
10575 kPa | 979.9 kg/m3
10605 kPa | 980 kg/m3
10670 kPa | 980 kg/m3
10704 kPa | 980 kg/m3
10737 kPa | 980.1 kg/m3
10764 kPa | 980.1 kg/m3
10956 kPa | 980.2 kg/m3
10977 kPa | 980.2 kg/m3
11001 kPa | 980.3 kg/m3
11018 kPa | 980.2 kg/m3
11037 kPa | 980.2 kg/m3
11056 kPa | 980.3 kg/m3
11071 kPa | 980.4 kg/m3
11201 kPa | 980.4 kg/m3
11204 kPa | 980.4 kg/m3
11210 kPa | 980.4 kg/m3
11217 kPa | 980.4 kg/m3
11228 kPa | 980.4 kg/m3
11243 kPa | 980.4 kg/m3
11257 kPa | 980.3 kg/m3
11280 kPa | 980.5 kg/m3
11301 kPa | 980.4 kg/m3
11327 kPa | 980.5 kg/m3
11349 kPa | 980.5 kg/m3
11374 kPa | 980.6 kg/m3
11395 kPa | 980.6 kg/m3
11421 kPa | 980.6 kg/m3
11448 kPa | 980.5 kg/m3
11470 kPa | 980.5 kg/m3
11496 kPa | 980.6 kg/m3
11518 kPa | 980.6 kg/m3
11545 kPa | 980.6 kg/m3
11572 kPa | 980.5 kg/m3
11594 kPa | 980.5 kg/m3
11621 kPa | 980.6 kg/m3
11849 kPa | 980.8 kg/m3
11899 kPa | 980.9 kg/m3
11926 kPa | 980.8 kg/m3
